Here are results for 3 compounds from ChEMBL document CHEMBL4840380, “The Psychedelic Renaissance: Addressing Potential Adverse Effects in a Therapeutic Setting” (ACS Med Chem Lett, 2021).

One experiment concerns Mus musculus. The experiment is described as follows: Antipsychotic activity in sc dosed C57BL/6 mouse assessed as DOI-induced head twitching observed for 20 mins. The conditions noted are these: dose 1-100 mg/kg. In kind it is functional, organism-based.
In experiment [1] the target is 5-hydroxytryptamine receptor 2A (Homo sapiens) (UniProt P28223). The experiment is described as follows: Agonist activity at 5HT2A receptor (unknown origin) expressed in HEK293 cells assessed as maximal effect by FLIPR calcium flux assay relative to control. The class given is functional, cell-based. As to conditions: filed as agonist. For orientation: A change in cytosolic calcium serves as a functional read-out for many receptors and channels.
Chain of 5-hydroxytryptamine receptor 2A (Homo sapiens) (P28223 whole entry): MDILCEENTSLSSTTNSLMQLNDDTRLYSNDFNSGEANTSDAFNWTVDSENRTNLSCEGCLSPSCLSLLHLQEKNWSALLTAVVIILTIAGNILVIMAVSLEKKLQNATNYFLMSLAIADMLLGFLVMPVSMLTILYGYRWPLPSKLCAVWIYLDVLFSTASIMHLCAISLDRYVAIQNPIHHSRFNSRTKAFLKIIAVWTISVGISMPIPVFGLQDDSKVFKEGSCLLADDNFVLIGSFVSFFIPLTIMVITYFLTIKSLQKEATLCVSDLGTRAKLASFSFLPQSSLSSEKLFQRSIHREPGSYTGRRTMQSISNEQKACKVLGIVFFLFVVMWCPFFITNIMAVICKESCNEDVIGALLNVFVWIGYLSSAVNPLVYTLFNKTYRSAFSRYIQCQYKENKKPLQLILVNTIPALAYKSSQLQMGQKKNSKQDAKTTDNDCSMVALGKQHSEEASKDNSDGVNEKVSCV

A word on the Emax: it is the size of the effect at its maximum, as opposed to the concentration needed. In the case of `CCCN(CC)CCc1c[nH]c2ccc(F)cc12`, in the experiment with Mus musculus, the Activity result is “Dose-Dependent Effect”. The Emax in experiment [1] was 104%.
The matching figures for `CCN(C)CCc1c[nH]c2ccc(F)cc12`: “Dose-Dependent Effect” and 87.6%.
Consider `CN(C)CCc1c[nH]c2ccccc12`, for which the Emax in experiment [1] was found to be 93.4%.
